Results taken from patent US7626042B2, “O-substituted hydroxyaryl derivatives” (Institute of Medicinal Molecular Design, Inc., priority 2002, dated 2009).
Where a name gives a salt, the structure may show the parent alone.

Tested on: NF-κB activation
Assay: Inhibitory activity against NF-κB activation, luciferase reporter assay under TNF-α stimulation
Format: cell-based, human
Conditions: HepG2 cells, TNF-α 40 ng/ml, 4 hours; for inhibition at 1 µg/mL / inhibition at 10 µg/mL: Homo sapiens, read-out: Inhibitory Ratio of NF-κ B Activation(%)
Protocol: Inhibitory activity against NF-κB activation was measured by referring to the method of Hill et al. (Cell, (USA), in 1993, Vol. 73, No. 2, p. 395-406). Using a transfection reagent(Effectene; QIAGEN), the human hepatoma cell strain HepG2 was transfected with a plasmid (pNFκ Luc Reporter Plasmid; STRATAGENE) integrated with an oligonucleotide having five tandem copies of NF-κB binding sequences(TGGGGACTTTCCGC) on a upstream region of firefly luciferase gene (Luc) according to the QIAGEN's protocol, and the cells were incubated for 6 to 24 hours. Then the cells were cultured for 4 hours after the addition of TNF-α (40 ng/ml) in the presence of a test compound, and intracellular luciferase activity was measured by using PicaGene LT (TOYO INK MFG Co., Ltd.) and a chemical luminescence measurement apparatus(SPECTRAFluor Plus; TECAN). The inhibitory ratio was measured as a ratio relative to a value of the luciferase activity in the absence of the test compound.

Row | SMILES | Inhibitory Ratio of NF-κ B Activation(%) (Drug Concentration 1 μg/mL) | Inhibitory Ratio of NF-κ B Activation(%) (Drug Concentration 10 μg/mL) | inhibition at 1 µg/mL (Drug Concentration 1 μg/mL) [%] | inhibition at 10 µg/mL (Drug Concentration 10 μg/mL) [%]
1 | N[C@@H](CCC(=O)O)C(=O)Oc1ccc(Cl)cc1C(=O)Nc1cc(C(F)(F)F)cc(C(F)(F)F)c1 [Compound 32] | 98.0 | 98.8 | – | –
2 | CC(C)(C)OC(=O)NCCCC[C@H](NC(=O)OC(C)(C)C)C(=O)Oc1ccc(Cl)cc1C(=O)Nc1cc(C(F)(F)F)cc(C(F)(F)F)c1 [Compound 33, 5-chloro-2-[N^α,N^ε-di(tert-butoxycarbonyl)-L-lysyl]oxy-N-[3,5-bis(trifluoromethyl)phenyl]benzamide] | – | – | 96.6 | 98.6
3 | Cl.Cl.NCCCC[C@H](N)C(=O)Oc1ccc(Cl)cc1C(=O)Nc1cc(C(F)(F)F)cc(C(F)(F)F)c1 [Compound 34] | 51.9 | 99.5 | – | –
4 | CC(C)C[C@H](NC(=O)[C@H](Cc1ccccc1)NC(=O)OC(C)(C)C)C(=O)Oc1ccc(Cl)cc1C(=O)Nc1cc(C(F)(F)F)cc(C(F)(F)F)c1 [Compound 35, 2-{N-[N-(tert-butoxycarbonyl)-L-phenylalanyl]-L-leucyl}oxy-5-chloro-N-[3,5-bis(trifluoromethyl)phenyl]benzamide] | – | – | 96.9 | 98.3
5 | CC(C)C[C@H](NC(=O)[C@@H](N)Cc1ccccc1)C(=O)Oc1ccc(Cl)cc1C(=O)Nc1cc(C(F)(F)F)cc(C(F)(F)F)c1.Cl [Compound 36] | 97.8 | 98.7 | – | –
6 | CC(C)C[C@H](NC(=O)[C@H](CC(=O)OC(C)(C)C)NC(=O)OC(C)(C)C)C(=O)Oc1ccc(Cl)cc1C(=O)Nc1cc(C(F)(F)F)cc(C(F)(F)F)c1 [Compound 37, 2-{N-[N-(tert-butoxycarbonyl)-β-O-(tert-butyl)-α-L-aspartyl]-L-leucyl}oxy-5-chloro-N-[3,5-bis(trifluoromethyl)phenyl]benzamide] | 96.6 | 98.1 | – | –
7 | CC(C)C[C@H](NC(=O)[C@@H](N)CC(=O)O)C(=O)Oc1ccc(Cl)cc1C(=O)Nc1cc(C(F)(F)F)cc(C(F)(F)F)c1.Cl [Compound 38] | 97.8 | 98.6 | – | –
8 | CC(C)C[C@H](NC(=O)[C@H](CCCCNC(=O)OC(C)(C)C)NC(=O)OC(C)(C)C)C(=O)Oc1ccc(Cl)cc1C(=O)Nc1cc(C(F)(F)F)cc(C(F)(F)F)c1 [Compound 39, 2-{N-[N^α,N^ε-di(tert-butoxycarbonyl)-L-lysyl]-L-leucyl}oxy-5-chloro-N-[3,5-bis(trifluoromethyl)phenyl]benzamide] | – | – | 96.7 | 98.4
9 | CC(C)C[C@H](NC(=O)[C@@H](N)CCCCN)C(=O)Oc1ccc(Cl)cc1C(=O)Nc1cc(C(F)(F)F)cc(C(F)(F)F)c1.Cl.Cl [Compound 40] | 96.2 | 97.5 | – | –
10 | CC(C)C[C@H](N)C(=O)N[C@@H](Cc1ccccc1)C(=O)Oc1ccc(Cl)cc1C(=O)Nc1cc(C(F)(F)F)cc(C(F)(F)F)c1 [Compound 41, 5-Chloro-2-[N-(L-leucyl)-L-phenylalanyl]oxy-N-[3,5-bis(trifluoromethyl)phenyl]-benzamide hydrochloride] | – | – | 91.4 | 99.1
11 | N[C@@H](CC(=O)O)C(=O)N[C@@H](Cc1ccccc1)C(=O)Oc1ccc(Cl)cc1C(=O)Nc1cc(C(F)(F)F)cc(C(F)(F)F)c1 [Compound 42, 2-[N-(α-L-aspartyl)-L-phenylalanyl]oxy-5-chloro-N-[3,5-bis(trifluoromethyl)-phenyl]benzamide hydrochloride] | – | – | 92.7 | 96.9
12 | COC(=O)Oc1ccc(Cl)cc1C(=O)Nc1cc(C(F)(F)F)cc(C(F)(F)F)c1 [Compound 43, 5-Chloro-2-(methoxycarbonyl)oxy-N-[3,5-bis(trifluoromethyl)phenyl]benzamide] | – | – | 94.9 | 97.6
13 | CS(=O)(=O)Oc1ccc(Cl)cc1C(=O)Nc1cc(C(F)(F)F)cc(C(F)(F)F)c1 [Compound 44] | 85.9 | 98.6 | – | –
14 | CCCS(=O)(=O)Oc1ccc(Cl)cc1C(=O)Nc1cc(C(F)(F)F)cc(C(F)(F)F)c1 [Compound 45] | 84.7 | 95.4 | – | –
15 | CC(C)S(=O)(=O)Oc1ccc(Cl)cc1C(=O)Nc1cc(C(F)(F)F)cc(C(F)(F)F)c1 [Compound 46] | 89.5 | 96.3 | – | –
16 | Cc1ccc(S(=O)(=O)Oc2ccc(Cl)cc2C(=O)Nc2cc(C(F)(F)F)cc(C(F)(F)F)c2)cc1 [Compound 47] | 84.7 | 92.5 | – | –
17 | CN(C)S(=O)(=O)Oc1ccc(Cl)cc1C(=O)Nc1cc(C(F)(F)F)cc(C(F)(F)F)c1 [Compound 48] | 37.9 | 90.4 | – | –

Row | SMILES | Inhibitory Ratio of NF-κ B Activation(%) (Drug Concentration 1 μg/mL) | Inhibitory Ratio of NF-κ B Activation(%) (Drug Concentration 10 μg/mL) | inhibition at 1 µg/mL (Drug Concentration 1 μg/mL) [%] | inhibition at 10 µg/mL (Drug Concentration 10 μg/mL) [%]
18 | O=C(Nc1cc(C(F)(F)F)cc(C(F)(F)F)c1)c1cc(Cl)ccc1OS(=O)(=O)O [Compound 49] | 80.1 | 99.0 | – | –
19 | O=C(Nc1cc(C(F)(F)F)cc(C(F)(F)F)c1)c1cc(Cl)ccc1OP(=O)(OCc1ccccc1)OCc1ccccc1 [Compound 50, 5-chloro-2-(dibenzylphosphono)oxy-N-[3,5-bis(trifluoromethyl)phenyl]benzamide] | – | – | 90.7 | 97.1
20 | O=C(Nc1cc(C(F)(F)F)cc(C(F)(F)F)c1)c1cc(Cl)ccc1OP(=O)(O)O [Compound 51, 5-chloro-2-phosphonooxy-N-[3,5-bis(trifluoromethyl)phenyl]benzamide] | – | – | 89.7 | 96.6
21 | O=C(Nc1cc(C(F)(F)F)cc(C(F)(F)F)c1)c1cc(Cl)ccc1OP(=O)([O-])O.[Na+] [Compound 52] | 76.3 | 96.5 | – | –
22 | COc1ccccc1NC(=O)c1cc2cc(Br)ccc2cc1OP(=O)(O)O [Compound 53] | 21.5 | 92.0 | – | –
23 | CC(C)NC(=O)Oc1ccc(Cl)cc1C(=O)Nc1cc(C(F)(F)F)cc(C(F)(F)F)c1 [Compound 54] | 96.0 | 98.0 | – | –
24 | O=C(NCc1ccccc1)Oc1ccc(Cl)cc1C(=O)Nc1cc(C(F)(F)F)cc(C(F)(F)F)c1 [Compound 55] | 97.1 | 99.1 | – | –
25 | CCOC(=O)CNC(=O)Oc1ccc(Cl)cc1C(=O)Nc1cc(C(F)(F)F)cc(C(F)(F)F)c1 [Compound 56, 5-chloro-2-{N-[(ethoxycarbonyl)methyl]carbamoyl}oxy-N-[3,5-bis(trifluoromethyl)-phenyl]benzamide] | – | – | 96.8 | 98.9
26 | O=C(O)CNC(=O)Oc1ccc(Cl)cc1C(=O)Nc1cc(C(F)(F)F)cc(C(F)(F)F)c1 [Compound 57, 2-[N-(carboxymethyl)carbamoyl]oxy-5-chloro-N-[3,5-bis(trifluoromethyl)phenyl]-benzamide] | – | – | 95.4 | 97.2
27 | COC(=O)[C@H](C)NC(=O)Oc1ccc(Cl)cc1C(=O)Nc1cc(C(F)(F)F)cc(C(F)(F)F)c1 [Compound 58] | 97.9 | 98.8 | – | –
28 | COC(=O)[C@H](Cc1ccccc1)NC(=O)Oc1ccc(Cl)cc1C(=O)Nc1cc(C(F)(F)F)cc(C(F)(F)F)c1 [Compound 59] | 96.2 | 97.8 | – | –
29 | COC(=O)[C@H](COC(C)(C)C)NC(=O)Oc1ccc(Cl)cc1C(=O)Nc1cc(C(F)(F)F)cc(C(F)(F)F)c1 [Compound 60] | 97.7 | 98.9 | – | –
30 | CC(C)(C)OC(=O)[C@H](Cc1ccccc1)NC(=O)CNC(=O)Oc1ccc(Cl)cc1C(=O)Nc1cc(C(F)(F)F)cc(C(F)(F)F)c1 [Compound 61, (S)-2-[N-({N-[1-(tert-butoxycarbonyl)-2-phenylethyl]carbamoyl}methyl)carbamoyl]oxy-5-chloro-N-[3,5-bis(trifluoromethyl)phenyl]benzamide] | – | – | 98.6 | 99.2
31 | O=C(CNC(=O)Oc1ccc(Cl)cc1C(=O)Nc1cc(C(F)(F)F)cc(C(F)(F)F)c1)N[C@@H](Cc1ccccc1)C(=O)O [Compound 62] | 96.8 | 97.8 | – | –
32 | CC(C)(C)OC(=O)C[C@H](NC(=O)CNC(=O)Oc1ccc(Cl)cc1C(=O)Nc1cc(C(F)(F)F)cc(C(F)(F)F)c1)C(=O)OC(C)(C)C [Compound 63, (S)-2-[N-({N-[1,2-di(tert-butoxycarbonyl)ethyl]carbamoyl}-methyl)carbamoyl]oxy-5-chloro-N-[3,5-bis(trifluoromethyl)phenyl]benzamide] | – | – | 97.1 | 98.2
33 | O=C(O)C[C@H](NC(=O)CNC(=O)Oc1ccc(Cl)cc1C(=O)Nc1cc(C(F)(F)F)cc(C(F)(F)F)c1)C(=O)O [Compound 64] | 96.3 | 97.5 | – | –
